Measured values published in patent US5457092A, “Methods of promoting bone growth in mammals comprising administration of modified parathyroid hormone” (Gesellschaft fur Biotechnologische Forschung mbH (GBF), priority 1987, dated 1995).

Columns and labels:
[1] = system: rat organs (epiphysis, diaphysis, kidney); assay: CK specific activity in rat organs after i.p. injection; format: in vivo; settings: for effect on CK activity in rat organs (in words): 0.875 μg/rat; for CK specific activity, Kidney / CK specific activity, Epiphysis / CK specific activity, Diaphysis: rat; for CK specific activity, Kidney: control 1.43 ± 0.20; for CK specific activity, Epiphysis: control 15.0 ± 2.2; for CK specific activity, Diaphysis: control 26.0 ± 3.,9
Method: FIG. 13 is a graph showing the time-dependent stimulation by hPTH (28-48) of CK specific activity in rat organs. Female rats (20-25 days old) were injected i.p. with hPTH-(28-48) (1.25 μg/rat). Experimental details are as described for FIG. 10. (a) Diaphysis, (b) epiphysis, (c) kidney. *P<0.05, **P<0.01 versus controls.
FIG. 14 is a graph showing the dose-dependent stimulation of CK specific activity by hPTH (1-34) in rat organs. Female rats (20-25 days old) were injected i.p. with hPTH-(1-34). At 4 h later, rats were killed and extracts were prepared and assayed as described below. Experimental details are as described for FIG. 10 (a) Diaphysis, (b) epiphysis, (c) kidney. *P<0.05, ** P<0.01 versus controls.
FIG. 15 is a graph showing the dose-dependent stimulation of CK specific activity by hPTH (28-48) in rat organs. Female rats (20-25 days old) were injected i.p. with hPTH-(28-48). Experimental details are as described for FIG. 13 (a) Diaphysis, (b) epiphysis, (c) kidney. *P<0.05, **P<0.01 versus controls.
FIG. 16 is a graph showing the […] stimulation by bPTH (1-84) of CK specific activity in rat organs. Female rats (20-25 days old) were injected i.p. with bPTH-(1-84) (3.5 μg/rat). At the times indicated, the rats were killed and the diaphyses (a) and epiphyses (b) of long bones as well as the kidneys (c) were collected and homogenized. Extracts were prepared and assayed as described below. Results are means ±S.E.M for π=5. Statistical significance of differences between treated and control groups by Student's T test: *P<0.05; **P<0.01. Note that the activity scales differ for different organs.
Kidneys, tibia and femur were excised; the epiphyses or diaphyses of the long bones were collected and washed thoroughly with cold 0.9% NaCl. The bones were split open lengthwise and the marrow was scraped out. Organs were homogenized in ice-cold buffer containing 50 mM-Tris/HCl (pH 6.8), 5 mH-magnesium acetate. 2.5 mM-dithiothreitol, 0.4 mM-EDTA and 250 mM-sucrose using a Polytron homogenizer in 10 s bursts with intervening cooling periods. Supernatant extracts were obtained by centrifugation at 12000 g for 5 min at 4° C. CK activity was measured at 30° C. in a Gilford 250 automatic recording spectrophotometer at 340 nm using a coupled assay for ATP, in 0.5 ml of incubation mixture containing 50 mM-imidazole acetate buffer (pH 6.7), 25 mM-phosphocreatine, 20 mM-N-acetylcysteine, 20 mM-D-glucose, 10 mM-magnesium acetate, 5 mM-EDTA, 2 mM-ADP, 2 mM-NAD+, 2 mM-dithiothreitol, 50 μM-diadenosine pentaphosphate (adenylate kinase inhibitor), 5 μg of bovine serum albumin. 1.2 units of glucose-6-phosphate dehydrogenase and 0.8 units of hexokinase. Protein was determined by the Coomassie Brilliant Blue dye-binding method, with bovine serum albumin as the standard.

[2] = system: rat epiphysial cartilage cell cultures; assay: CK specific activity in rat epiphysial cartilage cell cultures; format: cell-based; settings: for CK specific activity: 100 nM, control 225 ± 32
Method: To compare the stimulations seen in osteoblast-like cells (FIGS. 10 and 11) with PTH effects in a cartilage system, cultures of rat epiphysial cartilage cells were incubated with full-length PTH and selected PTH fragments (Table 3). CK activity was stimulated by bPTH(1-84) and hPTH(28-48) but not by hPTH(25-39) or hPTH(34-47). […] The comparison between the complete molecule and the mid-regional fragment hPTH (28-48) is similar to but not identical with the results obtained for calvaria cell cultures (FIGS. 10 and 11) and in the chick sternum chondrocyte system; cf. Biochem. J., 252 (1988) 263-268 (11; Farndale et al.),

[3] = system: osteoblast enriched rat embryo calvaria cell cultures; assay: DNA synthesis ([3H]thymidine incorporation) in rat embryo calvaria cell cultures; format: cell-based; settings: for [3H)Thymidine incorporation, effect of fragment (experimental value/control value): 100 nM, 24 h, control 624 ± 73 c.p.m./μg of DNA
Summary of the method: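 Cultures stimulated with bPTH (1-84); [3H]thymidine incorporation into DNA measured 24 h after stimulation. Values are means ±S.E.M., N≥5, compared with controls by Student's t test.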

[4] = system: osteoblast enriched rat embryo calvaria cell cultures; assay: Cyclic AMP production in rat embryo calvaria cell cultures; format: cell-based; settings: 100 nM; 15 min; control 29 ± 2.9 pmol/mg of protein
Summary of the method: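 Osteoblast-enriched rat embryo calvaria cultures stimulated with PTH fragments from the central portion of the molecule. Cyclic AMP measured 15 min after stimulation; CK specific activity measured 24 h after stimulation. Values are means ±S.E.M., N≥5, compared with controls by Student's T test.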

[5] = 4 h after injection of 0.875 μg

| Substance | effect on CK activity in rat organs (in words) ([1]; equivalent to 14 nM) | CK specific activity, Kidney [1, 5] | CK specific activity, Epiphysis [1, 5] | CK specific activity, Diaphysis [1, 5] | CK specific activity [2] | stimulation of DNA synthesis (in words) [3] | [3H)Thymidine incorporation, effect of fragment (experimental value/control value) [3] | Cyclic AMP concentration, effect of fragment (experimental value/control value) [4] | also measured |
| --- | --- | --- | --- | --- | --- | --- | --- | --- | --- |
| hPTH(34-47): PTH fragment 34-47, human source; comparative example (FVALGAPLAPRDAG; Parathyroid hormone; UniProt P01270 65-78, looked up, fragment) [reference compound] | no effect | 1.64 ± 0.32 μmol/min per mg of protein | 16.7 ± 2.5 μmol/min per mg of protein | 24.9 ± 4.8 μmol/min per mg of protein | 236 ± 32 nmol/min per mg of protein | – | – | – | – |
| hPTH(25-39): PTH fragment 25-39, human source (RKKLQDVHNFVALGA; Parathyroid hormone; UniProt P01270 56-70, looked up, fragment) | significant increase | 3.22 ± 0.78 μmol/min per mg of protein | 24.0 ± 3.2 μmol/min per mg of protein | 41.8 ± 4.9 μmol/min per mg of protein | 268 ± 36 nmol/min per mg of protein | maximal | 2.96 ± 0.18 | 0.87 ± 0.30 | – |
| hPTH(28-48): mid-regional PTH fragment 28-48, human source (LQDVHNFVALGAPLAPRDAGS; Parathyroid hormone; UniProt P01270 59-79, looked up, fragment) | – | – | – | – | 346 ± 36 nmol/min per mg of protein | maximal | 2.82 ± 0.18 | 1.22 ± 0.09 | time of maximal increase of CK activity, diaphysis ([1]; 1.25 μg/rat i.p.): 1 h; time of maximal increase of CK activity, epiphysis ([1]; 1.25 μg/rat i.p.): 4 h; effect on CK activity after injection (in words) ([1]; 1.25 μg/rat i.p., equivalent to 14 nM): increased CK activity; CK activity in diaphysis over time (in words) ([1]; 1.25 μg/rat i.p., 1, 4 and 24 h): significantly increased at all three times measured; CK activity in epiphysis at 1 h (in words) ([1]; 1.25 μg/rat i.p., 1 h): significant increase; CK activity in epiphysis at 24 h (in words) ([1]; 1.25 μg/rat i.p., 24 h): no significant increase; CK specific activity in kidney at 24 h (in words) ([1]; 1.25 μg/rat i.p., 24 h): declined to close to the constitutive activity; stimulation of CK specific activity in diaphysis at the dose of maximum effect ([1]; 1.25 μg/rat, 4 h later): approx. 3 fold; dose of maximal effect on CK specific activity ([1]; i.p., 4 h later): 1.25 μg/rat; dose giving a significant increase in CK specific activity in all organs ([1]; i.p., 4 h later, diaphysis, epiphysis, kidney): 0.15 μg/rat; CK specific activity, Kidney ([1]; 4 h after injection of 1.25 μg): 2.26 ± 0.34 μmol/min per mg of protein; CK specific activity, Epiphysis ([1]; 4 h after injection of 1.25 μg): 20.9 ± 3.0 μmol/min per mg of protein; CK specific activity, Diaphysis ([1]; 4 h after injection of 1.25 μg): 37.2 ± 3.3 μmol/min per mg of protein; stimulation of CK activity (in words) [2]: stimulated |
